In PubChem BioAssay AID248 (DTP/NCI, 2004):
Inconclusive results and toxic doses are left out.

Test system: L1210 leukemia ip in BDF1 mice, survival T/C
Assay: NCI In Vivo Anticancer Drug Screen. Data for tumor model L1210 Leukemia (intraperitoneal) in B6D2F1 (BDF1) mice
Conditions: endpoint: mean survival time, higher = longer survival
Method in brief: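 Tumor was transplanted into mice, which were then dosed with test compound or vehicle alone. Survival was recorded for each group, and the treated figure was expressed relative to the control figure.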

[1] = dose: 100.0 mg/kg/injection, schedule: Q04DX003 (ip), vehicle: saline with Tween-80
[2] = dose: 200.0 mg/kg/injection, schedule: Q04DX003 (ip), vehicle: saline with Tween-80
[3] = dose: 400.0 mg/kg/injection, schedule: Q04DX003 (ip), vehicle: saline with Tween-80
[4] = dose: 100.0 mg/kg/injection, schedule: Q01DX009 (ip), vehicle: Klucel (hydroxypropylcellulose) (HPC)
[5] = dose: 100.0 mg/kg/injection, schedule: Q04DX002 (ip), vehicle: Klucel (hydroxypropylcellulose) (HPC)
[6] = dose: 200.0 mg/kg/injection, schedule: Q04DX002 (ip), vehicle: Klucel (hydroxypropylcellulose) (HPC)
[7] = dose: 400.0 mg/kg/injection, schedule: Q04DX002 (ip), vehicle: Klucel (hydroxypropylcellulose) (HPC)
[8] = dose: 100.0 mg/kg/injection, schedule: Q04DX003 (ip), vehicle: Klucel (hydroxypropylcellulose) (HPC)
[9] = dose: 200.0 mg/kg/injection, schedule: Q04DX003 (ip), vehicle: Klucel (hydroxypropylcellulose) (HPC)
[10] = dose: 400.0 mg/kg/injection, schedule: Q04DX003 (ip), vehicle: Klucel (hydroxypropylcellulose) (HPC)
[11] = dose: 100.0 mg/kg/injection, schedule: Q01DX009 (ip), vehicle: saline
[12] = dose: 200.0 mg/kg/injection, schedule: Q01DX009 (ip), vehicle: saline
[13] = dose: 400.0 mg/kg/injection, schedule: Q01DX009 (ip), vehicle: saline
[14] = dose: 100.0 mg/kg/injection, schedule: Q01DX001 (ip), vehicle: saline
[15] = dose: 200.0 mg/kg/injection, schedule: Q01DX001 (ip), vehicle: saline

`Cc1ccc2c(c1)=N/C(=N\c1nc(O)c(O)[nH]1)N=2` was tested, and the T/C [1] was 97 % of control, the T/C [2] was 108 % of control and the T/C [3] was 103 % of control.
In the case of `N=C(N)c1ncn(C2CCCC2)c1N`, the T/C (dose: 75.0 mg/kg/injection, schedule: Q01DX001 (ip), vehicle: saline) is reported as 106 % of control and the T/C (dose: 150.0 mg/kg/injection, schedule: Q01DX001 (ip), vehicle: saline) is reported as 105 % of control.
With `CC(=O)Nc1c(Cl)c(Cl)c2c(c1Cl)Cc1cc(Cl)ccc1-2` the T/C (dose: 100.0 mg/kg/injection, schedule: Q01DX009 (ip), vehicle: acetone) was 90 % of control, the T/C (dose: 100.0 mg/kg/injection, schedule: Q04DX003 (ip), vehicle: saline) was 93 % of control and the T/C (dose: 200.0 mg/kg/injection, schedule: Q01DX009 (ip), vehicle: acetone) was 93 % of control. For the same compound, the T/C (dose: 200.0 mg/kg/injection, schedule: Q04DX003 (ip), vehicle: saline) was 91 % of control, the T/C (dose: 400.0 mg/kg/injection, schedule: Q01DX009 (ip), vehicle: acetone) was 95 % of control and the T/C (dose: 400.0 mg/kg/injection, schedule: Q04DX003 (ip), vehicle: saline) was 91 % of control.
With `S=C(NCc1cccc(Cl)c1)Nc1ccccc1` the T/C (dose: 25.0 mg/kg/injection, schedule: Q01DX009 (ip), vehicle: Klucel (hydroxypropylcellulose) (HPC)) was 98 % of control, the T/C (dose: 50.0 mg/kg/injection, schedule: Q01DX009 (ip), vehicle: Klucel (hydroxypropylcellulose) (HPC)) was 106 % of control and the T/C [4] was 93 % of control.
`C[C@@H]1C[C@](O)([C@@H](C)Cl)C(=O)O[C@@H]2CCN3CC=C(COC(=O)[C@]1(C)O)[C@H]23` was tested, and the T/C (dose: 3.0 mg/kg/injection, schedule: Q01DX Z (ip), vehicle: saline) was 107 % of control, the T/C (dose: 6.0 mg/kg/injection, schedule: Q01DX Z (ip), vehicle: saline) was 103 % of control and the T/C (dose: 12.0 mg/kg/injection, schedule: Q01DX Z (ip), vehicle: saline) was 100 % of control. For the same compound, the T/C (dose: 24.0 mg/kg/injection, schedule: Q01DX Z (ip), vehicle: saline) was 103 % of control.
For `CCCCS(=O)(=O)C1C2CCC(O2)C1S(=O)(=O)CCCC` (centres undefined), the T/C [5] was 92 % of control, the T/C [6] was 105 % of control and the T/C [7] was 101 % of control.
With `CC1(C)C2CC3C(=CCCC3C(=O)O)C1C2` (centres undefined) the T/C [8] was 97 % of control, the T/C [9] was 103 % of control and the T/C [10] was 95 % of control.
In the case of `COC(=O)C(C(=O)OC)C(Br)(OC(C)=O)OC(C)=O`, the T/C [1] is reported as 98 % of control, the T/C [2] is reported as 100 % of control and the T/C [3] is reported as 106 % of control.
With `Nc1ccn(C2OC(COC(c3ccccc3)(c3ccccc3)c3ccccc3)C(O)C2O)c(=O)n1` (centres undefined) the T/C (dose: 100.0 mg/kg/injection, schedule: Q01DX005 (ip), vehicle: saline) was 101 % of control and the T/C (dose: 200.0 mg/kg/injection, schedule: Q01DX005 (ip), vehicle: saline) was 112 % of control.
For `O=c1oc2ccccc2c(Cl)c1Cl`, the T/C (dose: 10.0 mg/kg/injection, schedule: Q01DX001 (ip), vehicle: saline) was 109 % of control.
With `CC(=O)/C(N=O)=C(/C)O` the T/C (dose: 50.0 mg/kg/injection, schedule: Q01DX009 (ip), vehicle: saline) was 111 % of control, the T/C [11] was 105 % of control and the T/C [8] was 91 % of control. For the same compound, the T/C [12] was 104 % of control, the T/C [9] was 93 % of control and the T/C (dose: 400.0 mg/kg/injection, schedule: Q01DX001 (ip), vehicle: saline with Tween-80) was 92 % of control. The T/C [13] was 111 % of control and the T/C [10] was 87 % of control.
With `COc1cc(C=Nc2ccc3c(c2)nc(C)n3C)ccc1N(CCCl)CCCl` the T/C [5] was 165 % of control, the T/C [6] was 120 % of control and the T/C [7] was 89 % of control.
With `COc1c(N)c(C)nc(Cl)c1C#N` the T/C [14] was 97 % of control, the T/C [15] was 103 % of control and the T/C (dose: 400.0 mg/kg/injection, schedule: Q01DX001 (ip), vehicle: saline) was 109 % of control.
`CN(N)c1ncnc2c1ncn2C1OC(CO)C(O)C1O` (centres undefined) was tested, and the T/C [1] was 114 % of control, the T/C [2] was 106 % of control and the T/C [3] was 95 % of control.
`CCC(C)(c1ccc(O)cc1)c1ccc(O)cc1` was tested, and the T/C (dose: 100.0 mg/kg/injection, schedule: Q04DX002 (ip), vehicle: saline) was 103 % of control, the T/C (dose: 200.0 mg/kg/injection, schedule: Q04DX002 (ip), vehicle: saline) was 97 % of control and the T/C (dose: 400.0 mg/kg/injection, schedule: Q04DX002 (ip), vehicle: saline) was 103 % of control.
In the case of `O=C(OC12CCN(CC1)CC2)c1ccccc1`, the T/C (dose: 9.5 mg/kg/injection, schedule: Q01DX001 (ip), vehicle: saline) is reported as 95 % of control and the T/C (dose: 19.0 mg/kg/injection, schedule: Q01DX001 (ip), vehicle: saline) is reported as 95 % of control.
For `CCCCCCCCCCCCCCCCOCCCCCCCCCCCCCCCC`, the T/C [4] was 96 % of control, the T/C (dose: 100.0 mg/kg/injection, schedule: Q04DX003 (ip), vehicle: other) was 103 % of control and the T/C (dose: 200.0 mg/kg/injection, schedule: Q01DX009 (ip), vehicle: Klucel (hydroxypropylcellulose) (HPC)) was 100 % of control. The T/C (dose: 200.0 mg/kg/injection, schedule: Q04DX003 (ip), vehicle: other) was 88 % of control, the T/C (dose: 400.0 mg/kg/injection, schedule: Q01DX009 (ip), vehicle: Klucel (hydroxypropylcellulose) (HPC)) was 91 % of control and the T/C (dose: 400.0 mg/kg/injection, schedule: Q04DX003 (ip), vehicle: other) was 95 % of control.
`O=CC(CO)CC(C=O)n1cnc2c(=O)[nH]cnc21` (centres undefined) was tested, and the T/C [14] was 114 % of control.
`O=c1[nH]cnc2ncccc12` was tested, and the T/C [14] was 106 % of control and the T/C [15] was 104 % of control.
In the case of `O=C1c2ccccc2CCC12OC2c1ccccc1[N+](=O)[O-]` (centres undefined), the T/C [11] is reported as 88 % of control, the T/C (dose: 100.0 mg/kg/injection, schedule: Q04DX003 (ip), vehicle: acetone) is reported as 98 % of control and the T/C [12] is reported as 89 % of control. For the same compound, the T/C (dose: 200.0 mg/kg/injection, schedule: Q04DX003 (ip), vehicle: acetone) was 93 % of control, the T/C [13] was 98 % of control and the T/C (dose: 400.0 mg/kg/injection, schedule: Q04DX003 (ip), vehicle: acetone) was 109 % of control.
With `ClCc1ccccc1CCc1ccccc1CCl` the T/C [8] was 105 % of control, the T/C [9] was 94 % of control and the T/C [10] was 105 % of control.
In the case of `CCC(=O)C1CCCCN1` (centres undefined), the T/C (dose: 25.0 mg/kg/injection, schedule: Q04DX002 (ip), vehicle: saline) is reported as 94 % of control and the T/C (dose: 50.0 mg/kg/injection, schedule: Q04DX002 (ip), vehicle: saline) is reported as 94 % of control.
For `O=C1/C(=C\C=C\c2ccccc2)CCCC/C1=C\C=C\c1ccccc1`, the T/C (dose: 50.0 mg/kg/injection, schedule: Q01DX001 (ip), vehicle: carboxymethylcellulose (CMC)) was 97 % of control, the T/C (dose: 100.0 mg/kg/injection, schedule: Q01DX001 (ip), vehicle: carboxymethylcellulose (CMC)) was 90 % of control and the T/C (dose: 200.0 mg/kg/injection, schedule: Q01DX001 (ip), vehicle: carboxymethylcellulose (CMC)) was 97 % of control. For the same compound, the T/C (dose: 400.0 mg/kg/injection, schedule: Q01DX001 (ip), vehicle: carboxymethylcellulose (CMC)) was 92 % of control.
`Cc1n(CC(C)C)c2c([n+]1CC(=O)c1ccc([N+](=O)[O-])cc1)C(=O)c1ccccc1C2=O` was tested, and the T/C (dose: 5.0 mg/kg/injection, schedule: Q01DX001 (ip), vehicle: carboxymethylcellulose (CMC)) was 93 % of control, the T/C (dose: 10.0 mg/kg/injection, schedule: Q01DX001 (ip), vehicle: carboxymethylcellulose (CMC)) was 86 % of control and the T/C (dose: 20.0 mg/kg/injection, schedule: Q01DX001 (ip), vehicle: carboxymethylcellulose (CMC)) was 97 % of control.
`CC1(C)C[n+]2noc([O-])c2C(C)(C)C1` was tested, and the T/C (dose: 0.19 mg/kg/injection, schedule: Q04DX003 (ip), vehicle: alcohol) was 104 % of control, the T/C (dose: 0.39 mg/kg/injection, schedule: Q01DX009 (ip), vehicle: alcohol) was 100 % of control and the T/C (dose: 0.39 mg/kg/injection, schedule: Q04DX003 (ip), vehicle: alcohol) was 96 % of control. The T/C (dose: 0.78 mg/kg/injection, schedule: Q01DX009 (ip), vehicle: alcohol) was 105 % of control, the T/C (dose: 0.78 mg/kg/injection, schedule: Q04DX003 (ip), vehicle: alcohol) was 113 % of control and the T/C (dose: 1.56 mg/kg/injection, schedule: Q01DX009 (ip), vehicle: alcohol) was 105 % of control. The T/C (dose: 1.56 mg/kg/injection, schedule: Q04DX003 (ip), vehicle: alcohol) was 96 % of control.
`Nc1ccc(OCc2nc(N)nc(N)c2-c2ccc(Cl)cc2)cc1` was tested, and the T/C (dose: 100.0 mg/kg/injection, schedule: Q01DX001 (ip), vehicle: Klucel (hydroxypropylcellulose) (HPC)) was 102 % of control, the T/C (dose: 200.0 mg/kg/injection, schedule: Q01DX001 (ip), vehicle: Klucel (hydroxypropylcellulose) (HPC)) was 105 % of control and the T/C (dose: 400.0 mg/kg/injection, schedule: Q01DX001 (ip), vehicle: Klucel (hydroxypropylcellulose) (HPC)) was 96 % of control.
